We go through one compound from patent US9872875B2, “Component and method for treating viral disease” (Institut Pasteur of Shanghai, Chinese Academy of Sciences, priority 2012, dated 2018).

Common to all, as to format: cell-based, Enterovirus 71
For assay [1], the system named is EV71 clinical isolate SH-RS. The assay is described as follows: EV71 SH-RS PFU in RD cells. To be noted: Enterovirus A, 168 h, 5~7 days, read-out: EC50 to reduce EV71 SH-RS PFU in RD cells. The protocol:
RD cells cultured in 12-well plates were infected with EV71 SH-TS or SH-RS at different E02 concentrations. After cultured for 5˜7 days, cells were stained and plaque-forming units were calculated. Same procedure is as detailed in “3. E02 reduces EV71 plaque forming units in RD cells” of Example 1.

The test system of assay [2] is EV71 clinical isolate SH-TS. Kind of assay: EV71 SH-TS replication in RD cells, quantitative RT-PCR. Conditions: MOI 0.1, 46 h. On the procedure:
(§1) RD cells were infected with EV71 SH-TS or SH-RS at different E02 concentrations, at the MOI of 0.1. After cultured for 46 h, viral RNA in culture supernatant was extracted. Relative EV71 viral load was determined by quantitative RT-PCR. See Example 1 for specific procedures of quantitative RT-PCR.

The test system of assay [3] is EV71 clinical isolate EV71 FY573. The assay is described as follows: Time of E02 addition assay, EV71 in RD cells. To be noted: 32 μM of E02, MOI 10, 18 h. On the procedure: RD cells in 96-well plates were infected with MOI 10 EV71 clinical isolate EV71 FY573. In three periods at prior to, during, and post infection, 32 μM of E02 (dissolved in DMEM) or DMEM were added, EV71 replication was measured to determine the stage, in which E02 inhibits EV71 infection. Steps are detailed as follows:
(1) Cell seeding: 24 h prior to infection, RD cells were seeded in 96-well cell culture plates, 5×10^4 cells per well;
(2) Cells pre-incubated with drug: cell culture medium was removed from 96-well plates, each well was added 100 μl of DMEM, and then added 11 μl of 320 μM E02 solution (cell group treated with drug) or 11 μl of DMEM (cell group without drug treatment), incubated at 37° C. for 1 h.
(3) Virus pre-incubated with drug: virus stock solution was diluted to 5×10^6 TCID50/ml with DMEM, dispensed to 96-well plates at 100 μl per well, and 11 μl of 320 μM E02 solution (B and C groups) or 11 μl of DMEM (A and F groups) were added, and incubated at 37° C. for 1 h.
(4) Infection: After cells and virus were incubated for one hour, drug was discarded from cell culture plates. 111 μl of pre-incubated virus with drug (B and C groups) or DMEM (A and F groups) was transferred to cell culture plates. After 100 μl of virus solution was transferred to D and E groups, 11 μl of 320 μM E02 was added, and incubated at 37° C. for 1 h.
(5) One hour after viral infection of cells, virus and drug mixture was discarded from cell culture plates. Cells were washed twice with 50 μl of DMEM. 180 μl per well of DMEM containing 2% FBS, 20 μl of 320 μM E02 solution (B, E, and F groups) or 20 μl of DMEM (A, C, and D groups) were added. […]
(7) Viral load determination: EV71 5′UTR gene was detected using ABI Taqman one-step RT-PCR kit (ABI taqMan® One-Step RT-PCR, Cat #4309169) in ABI 7900HT 384-well plates PCR system. […]
(8) PCR standard curves were used to convert CT values of PCR to viral load (standard curves were obtained by CT values determined by performing RT-PCR on RNA extracted from viruses with defined titers at 10-fold serial dilutions). […]

Assay [4] relates to EV71 clinical isolate SH-RS. The assay is described as follows: EV71 SH-RS replication in RD cells, quantitative RT-PCR. Conditions: MOI 0.1, 46 h. The protocol:
as §1

A further assay relates to EV71 isolate SEP-4. Kind of assay: EV71 SEP-4 replication in Vero cells, quantitative RT-PCR. Conditions: SEP-4, Vero cells, MOI 0.1, 46 h. The protocol: Vero cells were infected with EV71 SEP-4 virus strain (provided by Institut Pasteur of Cambodia, Cambodia strain) at different E02 concentrations, at the MOI of 0.1. After cultured for 46 h, viral RNA in culture supernatant was extracted. Relative EV71 viral load was determined by quantitative RT-PCR. For specific procedures, refer to Example 1.

Turning to `Cc1ccc(C(=O)Nc2ccc(S(=O)(=O)O)c3cc(S(=O)(=O)O)cc(S(=O)(=O)O)c23)cc1NC(=O)c1cccc(NC(=O)Nc2cccc(C(=O)Nc3cc(C(=O)Nc4ccc(S(=O)(=O)O)c5cc(S(=O)(=O)O)cc(S(=O)(=O)O)c45)ccc3C)c2)c1` [E02, Suramin Sodium], the EC50 (commonly the concentration needed to bring the measured effect to its halfway point) in assay [1] came out at 3.47 µM. Moreover, in assay [2], the “concentration reducing EV71 replication by 10-fold” value turned out to be 7.14 μM and the “concentration reducing EV71 replication by 100-fold” value was 25.35 µM. Also, in assay [3], the “inhibition of EV71 infection, E02 added after infection (F)” value is recorded as “could not inhibit EV71 infection”; the “inhibition of EV71 infection, E02 added during infection (D, E)” value is recorded as “can inhibit EV71 infection”; the “inhibition of EV71 infection, E02 added prior to infection (B, C)” value is recorded as “can inhibit EV71 infection”. In assay [4], the “concentration reducing EV71 replication by 10-fold” value came to 4.41 μM and the “concentration reducing EV71 replication by 1000-fold” value is 16.29 µM. Moreover, in the assay on EV71 isolate SEP-4, the “concentration reducing EV71 replication by 10-fold” value was 5.89 μM and the “concentration reducing EV71 replication by 100-fold” value was 15.49 µM.
